# Assay results published in patent publication US20170247326A1, “Substituted Pyrrolidine Carboxamide Compounds” (EPIZYME, INC., priority 2014, published 2017).
# Biological target: T1, SMYD2 (Homo sapiens, UniProt Q9NRG4)
# T1 construct: Full length SMYD2 (NP_064582.2) was cloned; His6 (N, cleaved yes); FLAG (N); made in house; host or cells: Sf9 insect cells
# Assay: SMYD2 biochemical assay (3H-SAM, biotinylated peptide substrate, Flashplate)
# Conditions: Table 1; average of n = 1 to n = 50; read-out: SMYD2 Biochem IC50
# Procedure, shortened: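 Full-length His/FLAG-tagged SMYD2 (tag removed, Sf9-expressed) at 1.5 nM was preincubated with compound for 30 min at room temperature in Bicine pH 7.6 buffer with 2% DMSO. Reaction used 10 nM 3H-SAM and 60 nM biotinylated peptide, stopped with 600 uM cold SAM. Streptavidin-captured 3H-peptide counted; IC50 from 3- or 4-parameter fit.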
# T1 sequence (Q9NRG4 whole entry): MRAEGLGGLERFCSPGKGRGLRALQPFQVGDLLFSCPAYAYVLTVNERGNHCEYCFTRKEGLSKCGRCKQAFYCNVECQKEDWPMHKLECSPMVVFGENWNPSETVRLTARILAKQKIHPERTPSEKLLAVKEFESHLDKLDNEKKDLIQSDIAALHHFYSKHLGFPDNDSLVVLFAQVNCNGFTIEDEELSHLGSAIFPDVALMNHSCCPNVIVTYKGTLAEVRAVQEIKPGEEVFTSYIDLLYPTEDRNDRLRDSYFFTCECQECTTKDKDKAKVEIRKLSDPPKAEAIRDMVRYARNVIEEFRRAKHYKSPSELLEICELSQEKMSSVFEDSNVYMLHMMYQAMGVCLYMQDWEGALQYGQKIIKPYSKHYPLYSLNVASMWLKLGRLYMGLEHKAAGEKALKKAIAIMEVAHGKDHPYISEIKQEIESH
row,SMILES,IC50 [µM]
1,"CC1Oc2ccc(C(=O)N[C@@H]3CN(C4CC4)C[C@@H]3C)cc2NC1=O (mixture of isomers) [compound 8, (±)-cis-N-(1-cyclopropyl-4-methylpyrrolidin-3-yl)-2-methyl-3-oxo-3,4-dihydro-2H-benzo[b][1,4]oxazine-6-carboxamide]",> 50
2,"C[C@H]1CN(C2CC2)C[C@H]1NC(=O)c1cc(O)nn1C (racemic) [compound 16, (±)-cis-N-(1-cyclopropyl-4-methylpyrrolidin-3-yl)-3-hydroxy-1-methyl-1H-pyrazole-5-carboxamide]",> 50
3,"CC1Oc2ccc(C(=O)N[C@H]3CN(C4CC4)C[C@@H]3C)cc2NC1=O (mixture of isomers) [compound 7, (±)-trans-N-(1-cyclopropyl-4-methylpyrrolidin-3-yl)-2-methyl-3-oxo-3,4-dihydro-2H-benzo[b][1,4]oxazine-6-carboxamide]",> 50
4,"C[C@H]1CN(C2CC2)C[C@@H]1NC(=O)Cc1ccc2c(c1)NC(=O)CO2 (racemic) [compound 3, (±)-trans-N-(1-cyclopropyl-4-methylpyrrolidin-3-yl)-2-(3-oxo-3,4-dihydro-2H-benzo[b][1,4]oxazin-6-yl)acetamide]",> 50
5,"C[C@H]1CN(C2CC2)C[C@H]1NC(=O)c1ccc2c(c1)CC(=O)N2 (racemic) [Cpd. No. 6, (±)-cis-N-(1-cyclopropyl-4-methylpyrrolidin-3-yl)-2-oxoindoline-5-carboxamide]",> 50

# Same assay, conditions: Table 3; average of n = 1 to n = 50; read-out: SMYD2 Biochem IC50
row,SMILES,IC50 [µM]
1,"CC(C)N1C[C@H](C)[C@H](NC(=O)c2ccc(N3CCCC3)cc2)C1 (racemic) [compound 30, (±)-cis-N-[4-methyl-1-(propan-2-yl)pyrrolidin-3-yl]-4-(pyrrolidin-1-yl)benzamide]",> 50
2,"CC(C)N1C[C@H](NC(=O)c2ccc3c(c2)NC(=O)CO3)[C@@H](C)C1 (racemic) [compound 37, (±)-trans-N-[4-methyl-1-(propan-2-yl)pyrrolidin-3-yl]-3-oxo-3,4-dihydro-2H-1,4-benzoxazine-6-carboxamide]",> 50
3,"CC(C)N1C[C@@H](C)[C@@H](NC(=O)c2cnn(C(C)C)c2)C1 (racemic) [compound 46, (±)-cis-N-[4-methyl-1-(propan-2-yl)pyrrolidin-3-yl]-1-(propan-2-yl)-1H-pyrazole-4-carboxamide]",> 50
4,"CC(C)N1CC(NC(=O)c2cc(C3CC3)cnn2)CC1C (stereo not drawn) [compound 120, 5-cyclopropyl-N-(1-isopropyl-5-methylpyrrolidin-3-yl)pyridazine-3-carboxamide]",11.5
5,"CC(=O)N[C@@H]1CN(C(C)C)C[C@@H]1C (racemic) [compound 40, (±)-cis-N-[4-methyl-1-(propan-2-yl)pyrrolidin-3-yl]acetamide]",> 50
6,"CC(C)N1C[C@@H](C)[C@H](NC(=O)c2ccc(N3CCCC3)cc2)C1 (racemic) [compound 33, (±)-trans-N-[4-methyl-1-(propan-2-yl)pyrrolidin-3-yl]-4-(pyrrolidin-1-yl)benzamide]",> 50
7,"CC(C)N1C[C@H](C)[C@H](NC(=O)c2cnc(C3CC3)o2)C1 (racemic) [compound 78, (±)-cis-2-cyclopropyl-N-[4-methyl-1-(propan-2-yl)pyrrolidin-3-yl]-1,3-oxazole-5-carboxamide]",> 50
8,"CC(C)N1C[C@@H](C)[C@H](NC(=O)c2cc(C3CC3)ncn2)C1 (racemic) [compound 68, (±)-trans-6-cyclopropyl-N-[4-methyl-1-(propan-2-yl)pyrrolidin-3-yl]pyrimidine-4-carboxamide]",> 50
9,"CC(C)N1C[C@@H](C)[C@H](NC(=O)c2noc(C3CC3)n2)C1 (racemic) [compound 39, (±)-trans-5-cyclopropyl-N-[4-methyl-1-(propan-2-yl)pyrrolidin-3-yl]-1,2,4-oxadiazole-3-carboxamide]",> 50
10,"CC(C)N1C[C@@H](C)[C@H](NC(=O)c2ncc(C3CC3)[nH]2)C1 (racemic) [compound 74, (±)-trans-5-cyclopropyl-N-[4-methyl-1-(propan-2-yl)pyrrolidin-3-yl]-1H-imidazole-2-carboxamide]",24.3
11,"CC(C)N1C[C@H](C)[C@H](NC(=O)c2cn(C(C)C)nn2)C1 (racemic) [compound 25, (±)-cis-N-[4-methyl-1-(propan-2-yl)pyrrolidin-3-yl]-1-(propan-2-yl)-1H-1,2,3-triazole-4-carboxamide]",6.34
12,"CC(C)N1C[C@H](C)[C@H](NC(=O)c2cc(C3CC3)sn2)C1 (racemic) [compound 93, (±)-cis-5-cyclopropyl-N-[4-methyl-1-(propan-2-yl)pyrrolidin-3-yl]-1,2-thiazole-3-carboxamide]",0.776
13,"CC(C)N1C[C@H](C)[C@H](NC(=O)c2cc3c(cn2)OC(F)(F)O3)C1 (racemic) [compound 75, (±)-cis-2,2-difluoro-N-[4-methyl-1-(propan-2-yl)pyrrolidin-3-yl]-2H-[1,3]dioxolo[4,5-c]pyridine-6-carboxamide]",> 50
14,"CC(C)N1C[C@@H](C)[C@H](NC(=O)c2nccc(C3CC3)n2)C1 (racemic) [compound 67, (±)-trans-4-cyclopropyl-N-[4-methyl-1-(propan-2-yl)pyrrolidin-3-yl]pyrimidine-2-carboxamide]",> 50
15,"CC(C)N1C[C@@H](C)[C@H](NC(=O)c2ccc(C3CC3)nn2)C1 (racemic) [compound 108, (±)-trans-6-cyclopropyl-N-[4-methyl-1-(propan-2-yl)pyrrolidin-3-yl]pyridazine-3-carboxamide]",> 50
16,"C[C@@H]1CN(Cc2ccc(OCc3ccccc3)cc2)C[C@@H]1NC(=O)c1cc(C2CC2)cnn1 (racemic) [compound 104, (±)-cis-N-(1-{[4-(benzyloxy)phenyl]methyl}-4-methylpyrrolidin-3-yl)-5-cyclopropylpyridazine-3-carboxamide]",0.0917
17,"CC(C)N1C[C@H](C)[C@H](NC(=O)c2cnnc(C3CC3)c2)C1 (racemic) [compound 64, (±)-cis-6-cyclopropyl-N-[4-methyl-1-(propan-2-yl)pyrrolidin-3-yl]pyridazine-4-carboxamide]",> 50
18,"CC(C)N1C[C@H](C)[C@H](NC(=O)c2cn(C3CC3)nn2)C1 (racemic) [compound 27, (±)-cis-1-cyclopropyl-N-[4-methyl-1-(propan-2-yl)pyrrolidin-3-yl]-1H-1,2,3-triazole-4-carboxamide]",0.781
19,"CC(C)N1CCC(NC(=O)c2cc(C3CC3)cnn2)C1 (stereo not drawn) [compound 95, 5-cyclopropyl-N-[1-(propan-2-yl)pyrrolidin-3-yl]pyridazine-3-carboxamide]",6.07
20,"CC(C)c1cnnc(C(=O)N[C@@H]2CN(C(C)C)C[C@@H]2C)c1 (racemic) [compound 118, (±)-cis-5-isopropyl-N-(1-isopropyl-4-methylpyrrolidin-3-yl)pyridazine-3-carboxamide]",10.4
21,"CC(C)N1C[C@@H](C)[C@H](NC(=O)c2cnc(C3CC3)cn2)C1 (racemic) [compound 52, (±)-trans-5-cyclopropyl-N-[4-methyl-1-(propan-2-yl)pyrrolidin-3-yl]pyrazine-2-carboxamide]",> 50
22,"CC(C)N1C[C@H](C)[C@H](NC(=O)c2nccc(C3CC3)n2)C1 (racemic) [compound 60, (±)-cis-4-cyclopropyl-N-[4-methyl-1-(propan-2-yl)pyrrolidin-3-yl]pyrimidine-2-carboxamide]",> 50
23,"CC(=O)N[C@@H]1CN(C(C)C)C[C@H]1C (racemic) [compound 58, (±)-trans-N-[4-methyl-1-(propan-2-yl)pyrrolidin-3-yl]acetamide]",> 50
24,"CC(C)N1C[C@H](C)[C@H](NC(=O)c2n[nH]c(C3CC3)n2)C1 (racemic) [compound 84, (±)-cis-5-cyclopropyl-N-[4-methyl-1-(propan-2-yl)pyrrolidin-3-yl]-1H-1,2,4-triazole-3-carboxamide]",36.8
25,"CC(C)N1C[C@H](C)[C@H](NC(=O)c2cc(C3CC3)cnn2)C1 (stereo in doubt) [compound 98, rel-5-cyclopropyl-N-[(3S,4S)-4-methyl-1-(propan-2-yl)pyrrolidin-3-yl]pyridazine-3-carboxamide]",2.09

# Same assay, conditions: Table 4; average of n = 1 to n = 50; read-out: SMYD2 Biochem IC50
row,SMILES,IC50 [µM]
1,"CC(C)N1C[C@H](CO)[C@H](NC(=O)c2cc(C3CC3)cnn2)C1 (racemic) [compound 129, rac-5-cyclopropyl-N-((3R,4R)-4-(hydroxymethyl)-1-isopropylpyrrolidin-3-yl)pyridazine-3-carboxamide]",0.77
2,"CNCCS(=O)(=O)N1C[C@H](C)[C@H](NC(=O)c2cc(C3CC3)cnn2)C1 (racemic) [compound 128, rac-5-cyclopropyl-N-((3R,4R)-4-methyl-1-((2-(methylamino)ethyl)sulfonyl)pyrrolidin-3-yl)pyridazine-3-carboxamide]",> 50
3,"CC(C)N1CC(NC(=O)c2cc(C3CC3)cnn2)CC1C (stereo not drawn) [compound 125, 5-cyclopropyl-N-(1-isopropyl-5-methylpyrrolidin-3-yl)pyridazine-3-carboxamide]",11.5
4,"C[C@H]1CN(S(=O)(=O)CCCN)C[C@H]1NC(=O)c1cc(C2CC2)cnn1 (racemic) [compound 126, rac-N-((3R,4R)-1-((3-aminopropyl)sulfonyl)-4-methylpyrrolidin-3-yl)-5-cyclopropylpyridazine-3-carboxamide]",> 50
5,"CC(C)c1cnnc(C(=O)N[C@@H]2CN(C(C)C)C[C@@H]2C)c1 (racemic) [compound 124, rac-5-isopropyl-N-((3R,4R)-1-isopropyl-4-methylpyrrolidin-3-yl)pyridazine-3-carboxamide]",10.4
6,"CC(C)N1C[C@@H](N(C)C(=O)c2cc(C3CC3)cnn2)[C@@H](C)C1 (racemic) [compound 130, rac-5-cyclopropyl-N-((3R,4R)-1-isopropyl-4-methylpyrrolidin-3-yl)-N-methylpyridazine-3-carboxamide]",6.4
